The record followed here is patent publication US12172983B2, “EGFR inhibitors” (Blueprint Medicines Corporation, priority 2019, dated 2024).

Read-outs that look alike come from different tables or passages of the source.

For one assay, the target named is T1, EGFR (L858R T790M C797S) (Homo sapiens, UniProt P00533, C797S/L858R/T790M).
T1 construct: purchased SignalChem E10-122VG
The experiment in a line: Biochemical EGFR inhibition assay (Caliper mobility shift), EGFR LRTMCS mutant. As to conditions: inhibitory activity against EGFR LRTMCS mutant; apparent IC50; read-out: Ext Enz LRTMCS. The method, boiled down: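 Apparent IC50s were derived by plotting percent activity against the log of compound concentration. Activity was measured as phosphopeptide electrophoretically separated from substrate, after reactions at room temperature reached 10% to 20% phosphorylation and were halted with 35 mM EDTA.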

For assay [1], the system named is phosphorylation of EGFR (Tyr1068) in NCI-H1975 cell line that harbors the EGFR L858R T790M mutations. The experiment in a line: NCI-H1975 pEGFR AlphaLISA assay. It is filed as cell-based. As to conditions: 4-5 hours incubation, read-out: Ext pEGFR H1975. The method, boiled down: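 NCI-H1975 cells (EGFR L858R/T790M) seeded overnight, then treated with compound for 4-5 h at 37 °C/5% CO2. After lysis, p-EGFR (Tyr1068) quantified by AlphaLISA SureFire Ultra with acceptor then donor beads; IC50 fitted from percent inhibition versus log concentration.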

Where [2] appears, read: inhibition of phosphorylation of mutant EGFR in NCI-H1975 cells.
Setting [3] is: Homo sapiens, NCI-H1975, inhibition of phosphorylation of mutant EGFR in NCI-H1975 cells.

T1 sequence (P00533 25-1210 T790M/C797S/L858R): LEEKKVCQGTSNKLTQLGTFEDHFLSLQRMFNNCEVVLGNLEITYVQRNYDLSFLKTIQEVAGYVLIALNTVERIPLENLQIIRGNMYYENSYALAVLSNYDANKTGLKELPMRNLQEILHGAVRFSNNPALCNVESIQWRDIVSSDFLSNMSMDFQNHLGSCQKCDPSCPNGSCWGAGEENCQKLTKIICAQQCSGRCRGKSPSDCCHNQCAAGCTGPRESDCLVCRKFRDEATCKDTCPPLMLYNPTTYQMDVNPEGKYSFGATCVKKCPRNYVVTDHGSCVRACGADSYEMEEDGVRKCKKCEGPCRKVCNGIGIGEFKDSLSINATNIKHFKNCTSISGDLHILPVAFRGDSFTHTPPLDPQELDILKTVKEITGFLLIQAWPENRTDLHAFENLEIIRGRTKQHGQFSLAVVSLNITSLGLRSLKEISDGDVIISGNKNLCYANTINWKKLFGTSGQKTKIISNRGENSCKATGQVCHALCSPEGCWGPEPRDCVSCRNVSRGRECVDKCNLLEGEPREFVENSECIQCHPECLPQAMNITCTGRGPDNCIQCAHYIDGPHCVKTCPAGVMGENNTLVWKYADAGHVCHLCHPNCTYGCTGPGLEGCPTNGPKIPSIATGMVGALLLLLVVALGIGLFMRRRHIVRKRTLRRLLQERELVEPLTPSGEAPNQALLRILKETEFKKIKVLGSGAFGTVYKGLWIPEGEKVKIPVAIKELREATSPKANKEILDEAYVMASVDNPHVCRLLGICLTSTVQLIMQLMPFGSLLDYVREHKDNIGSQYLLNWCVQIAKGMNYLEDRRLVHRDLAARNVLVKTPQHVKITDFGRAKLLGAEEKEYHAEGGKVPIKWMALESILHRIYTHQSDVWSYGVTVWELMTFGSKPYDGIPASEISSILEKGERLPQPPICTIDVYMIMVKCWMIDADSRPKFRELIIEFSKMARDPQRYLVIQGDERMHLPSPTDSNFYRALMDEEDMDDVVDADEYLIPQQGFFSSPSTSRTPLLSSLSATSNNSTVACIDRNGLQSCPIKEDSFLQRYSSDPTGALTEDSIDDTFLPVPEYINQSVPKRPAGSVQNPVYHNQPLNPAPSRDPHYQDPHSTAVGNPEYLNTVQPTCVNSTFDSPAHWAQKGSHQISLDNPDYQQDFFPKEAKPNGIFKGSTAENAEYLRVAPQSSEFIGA

`CC(C)c1ccc(N2C[C@H](CS(C)(=O)=O)[C@H]2C)c2cnc(Nc3ccnc(N4CC[C@@H](OCCN(C)C)C(F)(F)C4)n3)cc12` (single isomer, unassigned) [Compound 305, N-{2-[(4S)-4-[2-(dimethylamino)ethoxy]-3,3-difluoropiperidin-1-yl]pyrimidin-4-yl}-8-[(2R,3S)-3-(methanesulfonylmethyl)-2-methylazetidin-1-yl]-5-(propan-2-yl)isoquinolin-3-amine or N-{2-[(4R)-4-[2-(dimethylamino)ethoxy]-3,3-difluoropiperidin-1-yl]pyrimidin-4-yl}-8-[(2R,3S)-3-(methanesulfonylmethyl)-2-methylazetidin-1-yl]-5-(propan-2-yl)isoquinolin-3-amine]: the IC50 at EGFR (L858R T790M C797S) is at most 15 nM; in assay [1] (setting [2]) it was at most 10 nM.
Take `CN[C@H]1CCN(c2nccc(Nc3cc4c(C(C)C)ccc(N5C[C@H](CS(C)(=O)=O)[C@H]5C)c4cn3)n2)C[C@H]1F` (single isomer, unassigned) [Compound 306, N-{2-[(3R,4S)-3-fluoro-4-(methylamino)piperidin-1-yl]pyrimidin-4-yl}-8-[(2R,3S)-3-(methanesulfonylmethyl)-2-methylazetidin-1-yl]-5-(propan-2-yl)isoquinolin-3-amine or N-{2-[(3S,4R)-3-fluoro-4-(methylamino)piperidin-1-yl]pyrimidin-4-yl}-8-[(2R,3S)-3-(methanesulfonylmethyl)-2-methylazetidin-1-yl]-5-(propan-2-yl)isoquinolin-3-amine]: the IC50 (on EGFR (L858R T790M C797S); in assay [1] (setting [3])) was 20.1 to 30 nM throughout.
In the case of `CN[C@H]1CCN(c2nccc(Nc3cc4c(C(C)C)ccc(N5C[C@H](CS(C)(=O)=O)[C@H]5C)c4cn3)n2)C[C@H]1F` (single isomer, unassigned) [Compound 307, N-{2-[(3S,4R)-3-fluoro-4-(methylamino)piperidin-1-yl]pyrimidin-4-yl}-8-[(2R,3S)-3-(methanesulfonylmethyl)-2-methylazetidin-1-yl]-5-(propan-2-yl)isoquinolin-3-amine or N-{2-[(3R,4S)-3-fluoro-4-(methylamino)piperidin-1-yl]pyrimidin-4-yl}-8-[(2R,3S)-3-(methanesulfonylmethyl)-2-methylazetidin-1-yl]-5-(propan-2-yl)isoquinolin-3-amine], the IC50 is 20.1 to 30 nM on EGFR (L858R T790M C797S) and 10.1 to 20 nM in assay [1] (setting [2]).
For the molecule `CO[C@H]1CN(c2nccc(Nc3cc4c(C(C)C)cnc(N5C[C@H](CS(C)(=O)=O)[C@H]5C)c4cn3)n2)C[C@@H](F)[C@H]1O` (single isomer, unassigned) [Compound 308, (3R,4S,5S)-3-fluoro-1-[4-({8-[(2R,3S)-3-(methanesulfonylmethyl)-2-methylazetidin-1-yl]-5-(propan-2-yl)-2,7-naphthyridin-3-yl}amino)pyrimidin-2-yl]-5-methoxypiperidin-4-ol or (3S,4R,5R)-3-fluoro-1-[4-({8-[(2R,3S)-3-(methanesulfonylmethyl)-2-methylazetidin-1-yl]-5-(propan-2-yl)-2,7-naphthyridin-3-yl}amino)pyrimidin-2-yl]-5-methoxypiperidin-4-ol], the IC50 on EGFR (L858R T790M C797S) is at most 15 nM; in assay [1] (setting [3]), 10.1 to 20 nM.
The matching figures for `CN[C@H]1CCN(c2nccc(Nc3cc4c(C(C)C)ccc(N5C[C@H](CS(C)(=O)=O)[C@H]5C)c4cn3)n2)CC1(F)F` (single isomer, unassigned) [Compound 309, N-{2-[(4S)-3,3-difluoro-4-(methylamino)piperidin-1-yl]pyrimidin-4-yl}-8-[(2R,3S)-3-(methanesulfonylmethyl)-2-methylazetidin-1-yl]-5-(propan-2-yl)isoquinolin-3-amine or N-{2-[(4R)-3,3-difluoro-4-(methylamino)piperidin-1-yl]pyrimidin-4-yl}-8-[(2R,3S)-3-(methanesulfonylmethyl)-2-methylazetidin-1-yl]-5-(propan-2-yl)isoquinolin-3-amine]: 15.1 to 20 nM and at most 10 nM.
